Values quoted from earlier work in patent US20130252988A1, “COMPOSITIONS AND METHODS FOR TREATING MYELOFIBROSIS” (TARGEGEN, INC., priority 2010, published 2013).

Conditions: Kantarjian H M et al., Blood 110:3540-3546, 2007; cited from earlier work

**Q.** Which “Asymptomatic hyperamylasemia, sometimes with hyperlipasemia, as toxicity” value does the source give for `Cc1cn(-c2cc(NC(=O)c3ccc(C)c(Nc4nccc(-c5cccnc5)n4)c3)cc(C(F)(F)F)c2)cn1` [nilotinib] here?
**A.** observed
